Our source for the TGI and GI50 values is PubChem BioAssay (NCI).

Each structure is given as a SMILES string.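 Test compounds were applied to cells in 96-well plates for 48 hours at 5 doses. GI50 = concentration required for 50% inhibition of growth. TGI denotes the concentration required for complete inhibition of growth.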

Test systems include T-47D breast; ACHN renal; PC-3 prostate; SR leukemia; MDA-MB-231 breast; DU-145 prostate; MDA-N; HS 578T breast; SNB-78 CNS; DLD-1 colon; DMS 114 small cell lung; RXF-631 renal; XF 498 CNS; HOP-18 NSCLC; KM20L2 colon; M19-MEL melanoma; P388 leukemia; P388/ADR leukemia; SN12K1 renal.
What all share (experiment): NCI tumour cell line growth inhibition, 48 h

With `CCCCOP(C)(=O)C(NC(=O)OCC)(C(F)(F)F)C(F)(F)F` (stereo not given), the TGI in the assay on T-47D breast, in the assay on ACHN renal, in the assay on PC-3 prostate, in the assay with SR leukemia, in the assay with MDA-MB-231 breast and in the assay on DU-145 prostate was greater than 100 µM in each case. The TGI in the assay on MDA-N and with HS 578T breast was greater than 100 µM throughout.

With `CC(C)c1ccccc1SCc1cc(=O)cc(CSc2ccccc2C(C)C)o1`, the TGI is greater than 100 µM in the assay on T-47D breast; greater than 100 µM in the assay on ACHN renal; 30.7 µM with PC-3 prostate; greater than 100 µM with SR leukemia; 49.5 µM in the assay on MDA-MB-231 breast; 55.4 µM in the assay with DU-145 prostate. Besides, the results for the TGI in the assay with MDA-N and with HS 578T breast were 44.9 µM and 32.9 µM, respectively.

Take `C=C=CC(NC(=O)c1ccccc1)(C(=O)O)C(F)(F)F` (stereo not given): the TGI with SNB-78 CNS, in the assay with ACHN renal, in the assay with DLD-1 colon, with DMS 114 small cell lung, in the assay with SR leukemia and in the assay with RXF-631 renal was greater than 100 µM throughout. In addition, the TGI with XF 498 CNS and in the assay on HOP-18 NSCLC was greater than 100 µM in each case.

Regarding `Cc1cccc(N2C(=O)C3c4[nH]c5ccc(C)cc5c4C4CCC(C(C)(C)C)CC4C3C2=O)c1` (stereo not given), the TGI in the assay with T-47D breast worked out at 52.1 µM; in the assay on PC-3 prostate, 31.3 µM; in the assay on MDA-MB-231 breast, 38.4 µM; in the assay on DU-145 prostate, 38.7 µM.

Consider `CC12CCC(CC1)C(C)(C)O2`, for which the TGI in the assay with KM20L2 colon stood at 116 µM; in the assay with M19-MEL melanoma it was 64.5 µM; in the assay on SNB-78 CNS it was 261 µM; in the assay on DLD-1 colon, 103 µM; with P388 leukemia it was 55.7 µM; with P388/ADR leukemia, 42.6 µM. For the same compound, the TGI amounted to 123 µM in the assay with DMS 114 small cell lung, 110 µM in the assay with SN12K1 renal, 5.51 µM with XF 498 CNS and 88.5 µM with HOP-18 NSCLC. Besides, the GI50 in the assay with HOP-18 NSCLC is 16.7 µM.

For `CSc1nc(N)c2c(-c3ccccc3)c3c(nc2n1)CCCC3`, the TGI with T-47D breast, with ACHN renal, in the assay on PC-3 prostate, in the assay on SR leukemia, with MDA-MB-231 breast and with DU-145 prostate was greater than 100 µM in each case. The TGI in the assay with MDA-N was greater than 100 µM; with HS 578T breast it was 48.5 µM.

With `C=C1C(=O)OC2CC(C)C3C4OC4C(O)C3(C)C(O)C12` (stereo not given), the TGI in the assay with KM20L2 colon was 42.8 µM; in the assay with M19-MEL melanoma, 69.7 µM; in the assay with SNB-78 CNS it was 61.6 µM; in the assay with DLD-1 colon, 87.8 µM; in the assay with P388 leukemia, 43.7 µM; with P388/ADR leukemia, 49.3 µM. For the same compound, the TGI in the assay with DMS 114 small cell lung stood at 45.9 µM; in the assay with SN12K1 renal it was 70.8 µM; with XF 498 CNS, 47.4 µM; with HOP-18 NSCLC it was 72.4 µM.

Consider `COc1ccc(-c2c(-c3ccccc3)c(C)nc3nc(SC)nc(SC)c23)cc1OC`, for which the TGI is greater than 100 µM in the assay on T-47D breast; greater than 100 µM in the assay with ACHN renal; 41.7 µM in the assay on PC-3 prostate; 2.6 µM in the assay with SR leukemia; greater than 100 µM in the assay with MDA-MB-231 breast; greater than 100 µM in the assay with DU-145 prostate. Besides, the TGI with MDA-N was greater than 100 µM; with HS 578T breast it was 82.3 µM.
